# Experiments:
# Experiment in all cases: relative viability (nuclei count vs DMSO), 5 days (fraction); higher = more cells survive
# Irinotecan + Foretinib = compound: CCc1c2c(nc3ccc(OC(=O)N4CCC(N5CCCCC5)CC4)cc13)-c1cc3c(c(=O)n1C2)COC(=O)[C@]3(O)CC [Irinotecan] + COc1cc2c(Oc3ccc(NC(=O)C4(C(=O)Nc5ccc(F)cc5)CC4)cc3F)ccnc2cc1OCCCN1CCOCC1 [Foretinib] (partner 0.25 µM)
# In short: (§1)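 Relative viability was taken as the ratio of nuclei in treated wells to nuclei in vehicle wells. Lung cancer cell lines in 1536-well plates received compounds by pin tool one day after seeding, either one drug alone or a fixed anchor-drug dose plus five library-drug doses (not always all listed) in √10 steps. Nuclei were counted on 4× images after 5 days of treatment, and values are medians of duplicate plates.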
# Irinotecan + Pemetrexed = compound: CCc1c2c(nc3ccc(OC(=O)N4CCC(N5CCCCC5)CC4)cc13)-c1cc3c(c(=O)n1C2)COC(=O)[C@]3(O)CC [Irinotecan] + Nc1nc2[nH]cc(CCc3ccc(C(=O)N[C@@H](CCC(=O)O)C(=O)O)cc3)c2c(=O)[nH]1 [Pemetrexed] (partner 0.2 µM)
# In short: as §1
# MK-8033 + Dasatinib = compound: Cn1cc(-c2cnc3ccc4ccc(CS(=O)(=O)NCc5ccccn5)cc4c(=O)c3c2)cn1 [MK-8033] + Cc1nc(Nc2ncc(C(=O)Nc3c(C)cccc3Cl)s2)cc(N2CCN(CCO)CC2)n1 [Dasatinib] (partner 0.075 µM)
# In short: as §1
# MK-8033 + Pemetrexed = compound: Cn1cc(-c2cnc3ccc4ccc(CS(=O)(=O)NCc5ccccn5)cc4c(=O)c3c2)cn1 [MK-8033] + Nc1nc2[nH]cc(CCc3ccc(C(=O)N[C@@H](CCC(=O)O)C(=O)O)cc3)c2c(=O)[nH]1 [Pemetrexed] (partner 0.2 µM)
# In short: as §1
Cell Line,relative viability (Irinotecan + Foretinib; first compound 0.6325 µM),relative viability (Irinotecan + Foretinib; first compound 2 µM),relative viability (Irinotecan + Foretinib; first compound 6.325 µM),relative viability (Irinotecan + Foretinib; first compound 20 µM),relative viability (Irinotecan + Pemetrexed; first compound 0.6325 µM),relative viability (Irinotecan + Pemetrexed; first compound 2 µM),relative viability (Irinotecan + Pemetrexed; first compound 6.325 µM),relative viability (Irinotecan + Pemetrexed; first compound 20 µM),relative viability (MK-8033 + Dasatinib; first compound 0.02 µM),relative viability (MK-8033 + Dasatinib; first compound 0.2 µM),relative viability (MK-8033 + Dasatinib; first compound 0.6325 µM),relative viability (MK-8033 + Dasatinib; first compound 2 µM),relative viability (MK-8033 + Pemetrexed; first compound 0.02 µM),relative viability (MK-8033 + Pemetrexed; first compound 0.06325 µM),relative viability (MK-8033 + Pemetrexed; first compound 0.2 µM),relative viability (MK-8033 + Pemetrexed; first compound 0.6325 µM),relative viability (MK-8033 + Pemetrexed; first compound 2 µM),relative viability (MK-8033 + Dasatinib; first compound 0.06325 µM)
HCC-78,0.695,0.491,0.282,0.24,0.87,0.99,0.897,0.94,0.55,0.335,0.355,0.491,0.936,0.923,0.928,0.587,0.851,–
HCC-366,0.346,0.114,0.0566,0.0694,0.15,0.192,0.0569,0.0611,0.617,0.564,0.634,0.651,0.151,0.222,0.141,0.196,0.35,0.638
HCC-827,0.637,0.324,0.207,0.175,0.264,0.236,0.248,0.206,0.334,0.342,0.283,0.304,0.232,–,0.257,0.267,0.243,0.114
HOP-62,0.7,0.256,0.199,0.195,0.0967,0.337,0.17,0.166,0.536,0.581,0.66,0.599,0.358,0.415,0.326,0.3,0.32,0.535
IA-LM,0.951,0.62,0.148,0.117,–,–,–,–,–,–,–,–,–,–,–,–,–,–
LC-2-ad,0.73,0.621,0.288,0.235,0.325,0.271,0.259,0.151,0.547,–,0.67,0.61,0.298,0.273,0.264,0.268,0.276,0.437
LCLC-97TM1,0.435,0.172,0.151,0.194,0.124,0.196,0.129,0.133,0.887,0.803,0.84,0.939,0.165,0.134,–,0.201,0.173,0.814
LCLC-103H,0.59,0.522,0.373,0.347,0.477,0.471,0.508,0.516,0.516,0.406,0.434,0.537,0.504,0.446,0.457,0.482,0.458,0.518
LK-2,1.25,0.329,0.305,0.283,0.227,0.343,0.182,0.336,0.269,0.251,0.376,0.304,0.329,0.263,0.239,0.335,0.258,–
LOU-NH91,0.871,0.756,0.374,0.294,0.392,0.402,0.338,0.182,0.534,0.537,0.57,0.544,0.375,0.38,0.35,0.366,0.318,0.388
LU99A,0.366,0.253,0.187,0.225,0.162,0.126,0.155,0.109,0.61,0.626,0.542,0.445,0.192,0.183,0.158,0.168,0.187,0.442
LXF-289,1.05,0.615,0.167,0.2,0.733,0.854,0.54,0.212,0.197,0.208,0.189,0.215,0.963,0.874,0.901,0.883,0.837,0.213
NCI-H23,0.471,0.258,0.227,0.25,0.484,0.597,0.268,0.256,0.844,0.64,0.928,0.587,0.632,0.517,0.512,–,0.497,0.827
NCI-H522,–,–,–,–,0.966,0.824,0.566,0.498,0.776,0.815,1.07,0.818,1.07,0.967,0.941,0.891,1.04,0.696
NCI-H727,0.65,0.501,0.477,0.379,–,–,–,–,0.363,0.464,0.435,0.322,–,–,–,–,–,–
NCI-H1299,0.888,0.909,0.483,0.212,–,–,–,–,–,–,–,–,–,–,–,–,–,–
NCI-H1623,0.621,0.64,0.299,0.279,–,–,–,–,0.608,0.642,0.516,0.57,–,–,–,–,–,0.504
NCI-H1648,–,–,–,–,0.703,0.68,0.453,0.423,–,–,–,–,0.733,–,0.538,0.81,0.835,–
NCI-H1703,0.321,0.433,0.512,0.367,–,–,–,–,–,–,–,–,–,–,–,–,–,–
NCI-H1792,–,–,–,–,0.507,0.823,0.188,0.282,0.768,0.752,0.57,0.569,0.789,0.64,0.62,0.69,0.872,0.834

# Source: the supplement of paper PMC10307832
